One data set deals with zebrafish embryos. Description: Zebrafish embryo lethality. The note with it: above a concentration of 1 μM. Here is the method: Similarly, DMSO solutions (100 μM) of infigratinib (BGJ398) or vatalanib (PTK/ZK) were diluted in fish water to achieve concentrations of 0.1–0.3 μM. The compounds were added to embryo fish water E3 (5 mM NaCl, 0.17 mM KCl, 0.33 mM CaCl2, 0.33 mM MgSO4, pH 7.0) at 8–10 hpf onwards, before the onset of endothelial cell specification, as previously described.

Another data set is described as follows: in vitro. The note with it: zebrafish, zebrafish embryo homogenate (1:20 in MilliQ water).
The nature of data set [1]: Binding to mouse plasma protein.
The test system of data set [2] is developing vasculature in the zebrafish embryo. Description: Vascular development in zebrafish embryos (confocal / time-lapse imaging of transgenic lines). The note with it: 0.1–0.3 μM in swimming water.
Setting [3] is: %PPB-Mouse (plasma protein binding).

The text below walks through data of publication PMC7824571, “Probing the Effects of the FGFR-Inhibitor Derazantinib on Vascular Development in Zebrafish Embryos” (Pharmaceuticals, 2020).

Entries after “also recorded” stand apart in the source; their conditions may differ.

As a reminder, the fraction unbound is the share of the substance not bound to proteins or other matrix. A high value points to much free substance.

Regarding `Clc1ccc(Nc2nnc(Cc3ccncc3)c3ccccc23)cc1` [vatalanib], in the data set on zebrafish embryos, the embryo lethality was 80–90%. For the same compound, the fraction unbound at 20 h, 1 μM in “in vitro” came to 0.0995 ± 0.0131. The compound also yielded a free fraction (fraction unbound) in data set [1] (%Fu-PPB, free unbound) of 0.041 ± 0.0018. In addition, in data set [1] (setting [3]), the fraction unbound was 0.0413. Also, in data set [2], the ISV sprouting angiogenesis result is “dramatically reduced”, the “ISV-Aorta Connections” value is recorded as “No defects” and the Lumenization result is “Moderate defects”. Also, in data set [2] (listed as Vatalanib), the Blood flow entry is “dramatic defects in blood vessel function; also recorded: Moderate defects” and the ISV sprouting angiogenesis entry is “Strong defects”.

On to `CCN1CCN(c2ccc(Nc3cc(N(C)C(=O)Nc4c(Cl)c(OC)cc(OC)c4Cl)ncn3)cc2)CC1` [infigratinib], for which the fraction unbound at 20 h, 1 μM in “in vitro” came out at 0.0497 ± 0.0082. Moreover, the fraction unbound in data set [1] (%Fu-PPB, free unbound) came out at 0.013. The compound also had an unbound share (fraction unbound) in data set [1] (setting [3]) of 0.013. Moreover, in data set [2], the Anastomosis result is “Moderate/strong defects”, the Blood flow result is given as “mild impediment of blood flow”, the Cell cycle result is “inhibited cell cycle progression” and the Cell junctions result is “Mild defects”. In addition, in data set [2], the ISV sprouting angiogenesis result is “did not have any effect”, the “ISV-Aorta Connections” value is recorded as “Moderate defects” and the Lumenization result was “Mild defects”. In data set [2] (listed as Infigratinib), the Blood flow entry is listed as “Mild defects”, the Cell cycle result is “Moderate defects” and the ISV sprouting angiogenesis entry is “No defects”.
